Laboratory results: patent US20100267561A1, “HERBICIDAL PYRIDAZINONE DERIVATIVES” (priority 2007, published 2010)
Read-outs that look alike come from different tables or passages of the source.

Tests used:
Assay type in all cases: in vivo
rice (Oryza sativa) = experiment: Test B flooded paddy test plant response; settings: Oryza sativa, read-out: Plant response rating, Rice; for plant injury at 62 g/ha: 62 g ai/ha; for plant injury at 250 g/ha: 250 g ai/ha
Method in brief: (§1)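 Rice, umbrella sedge, ducksalad and barnyardgrass at 2-leaf stage; pots flooded to 3 cm, compounds applied into paddy water, depth held throughout. Greenhouse 13 to 15 days, then visual rating vs untreated controls on 0–100 scale (0 no effect, 100 complete control); dash means no test result.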

[1] = system: umbrella sedge (Cyperus difformis); experiment: Test B flooded paddy test plant response; settings: Cyperus difformis, read-out: Plant response rating, Sedge, Umbrella; for pest or weed control at 62 g/ha: 62 g ai/ha; for pest or weed control at 250 g/ha: 250 g ai/ha
Method in brief: as §1

[2] = system: ducksalad (Heteranthera limosa); experiment: Test B flooded paddy test plant response; settings: Heteranthera limosa, read-out: Plant response rating, Ducksalad; for pest or weed control at 62 g/ha: 62 g ai/ha; for pest or weed control at 250 g/ha: 250 g ai/ha
Method in brief: as §1

[3] = system: barnyardgrass (Echinochloa crus-galli); experiment: Test B flooded paddy test plant response; settings: Echinochloa crus-galli, read-out: Plant response rating, Barnyardgrass; for pest or weed control at 62 g/ha: 62 g ai/ha; for pest or weed control at 250 g/ha: 250 g ai/ha
Method in brief: as §1

[4] = system: windgrass (Apera spica-venti); experiment: Test B postemergence plant response; settings: for Windgrass plant response rating: postemergence, 0-100 scale; for Plant response rating, Windgrass: Postemergence
Method in brief: (§2)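 Visual injury score from 0 (none) to 100 (complete control) versus controls, taken 13 to 15 days after treatment in the greenhouse; chemicals applied postemergence, as formulated, to plants of 1- to 4-leaf stage (2 to 18 cm tall); dash denotes no test result.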

[5] = system: canarygrass (Phalaris minor); experiment: Test B postemergence plant response; settings: for Canarygrass plant response rating: 8 g ai/ha, postemergence, 0-100 scale; for Plant response rating, Canarygrass: Postemergence
Method in brief: as §2

[6] = system: winter barley (Hordeum vulgare); experiment: Test B postemergence plant response; settings: for Barley plant response rating: 8 g ai/ha, postemergence, 0-100 scale; for Plant response rating, Barley: Postemergence, scale 0 to 100, 0 no effect, 100 complete control
Method in brief: as §2

[7] = system: chickweed (Stellaria media); experiment: Test B postemergence plant response; settings: for Chickweed plant response rating: 8 g ai/ha, postemergence, 0-100 scale; for Plant response rating, Chickweed: Postemergence
Method in brief: as §2

[8] = system: giant foxtail (Setaria faberi); experiment: Test A pre-/postemergence plant response; settings: Setaria faberi, 240 h, read-out: Plant response rating, Foxtail, Giant; for pest or weed control at 31 g/ha: 31 g ai/ha; for pest or weed control at 125 g/ha: 125 g ai/ha
Method in brief: (§3)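 Ratings run 0–100 (100 = complete control), assigned visually against untreated controls roughly 10 days after treatment in a greenhouse. Compounds, formulated in non-phytotoxic solvent containing surfactant, were applied as a soil-directed preemergence spray and concurrently postemergence to one- to two-leaf plants 2–10 cm tall.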

[9] = system: large crabgrass (Digitaria sanguinalis); experiment: Test A pre-/postemergence plant response; settings: Digitaria sanguinalis, 240 h, read-out: Plant response rating, Crabgrass, Large; for pest or weed control at 31 g/ha: 31 g ai/ha; for pest or weed control at 125 g/ha: 125 g ai/ha
Method in brief: as §3

[10] = system: barnyardgrass (Echinochloa crus-galli); experiment: Test A pre-/postemergence plant response; settings: Echinochloa crus-galli, 240 h, read-out: Plant response rating, Barnyardgrass; for pest or weed control at 31 g/ha: 31 g ai/ha; for pest or weed control at 125 g/ha: 125 g ai/ha
Method in brief: as §3

corn (Zea mays) = experiment: Test A pre-/postemergence plant response; settings: Zea mays, 240 h; for Corn plant response rating (crop injury, 0 = no effect, 100 = complete kill) at 31 g/ha: 31 g ai/ha; for Corn plant response rating (crop injury, 0 = no effect, 100 = complete kill) at 125 g/ha: 125 g ai/ha
Method in brief: as §3

[11] = system: pigweed (Amaranthus retroflexus); experiment: Test A pre-/postemergence plant response; settings: Amaranthus retroflexus, 240 h, read-out: Plant response rating, Pigweed; for pest or weed control at 31 g/ha: 31 g ai/ha; for pest or weed control at 125 g/ha: 125 g ai/ha
Method in brief: as §3

[12] = Flood (flooded paddy test), scale 0 to 100, 0 no effect, 100 complete control
[13] = Flood (flooded paddy test), 125 g ai/ha, scale 0 to 100, 0 no effect, 100 complete control
[14] = Flood, 31 g ai/ha, scale 0 to 100
[15] = 62 g ai/ha, scale 0 to 100, 0 no effect, 100 complete control
[16] = post-emergence, Postemergence, 0 to 100 scale (0 no effect, 100 complete control)
[17] = post-emergence, Postemergence, 0 to 100 scale, 0 no effect, 100 complete control
[18] = pre-emergence, Preemergence, 0 to 100 scale, 0 is no effect, 100 is complete control
[19] = pre-emergence, Preemergence, 0 to 100 scale (0 no effect, 100 complete control)

SMILES: Cc1cc(-c2ccc(Br)cc2)nn1-c1c(OC(=O)C2CC2)cnn(C(=O)C2CC2)c1=O [Compound 80, 5-[3-(4-bromophenyl)-5-methyl-1H-pyrazol-1-yl]-1-(cyclopropylcarbonyl)-1,6-dihydro-6-oxo-4-pyridazinyl cyclopropanecarboxylate]
- plant injury at 62 g/ha (rice (Oryza sativa); [12]): 0%
- plant injury at 125 g/ha (rice (Oryza sativa); [13]): 0%
- plant injury at 250 g/ha (rice (Oryza sativa); [12]): 0%
- plant injury at 31 g/ha (rice (Oryza sativa); [14]): 0%
- pest or weed control at 62 g/ha [1, 12]: 0%
- pest or weed control at 125 g/ha [1, 13]: 0%
- pest or weed control at 250 g/ha [1, 12]: 0%
- pest or weed control at 31 g/ha [1, 14]: 0%
- pest or weed control at 62 g/ha [2, 12]: 0%
- pest or weed control at 125 g/ha [2, 13]: 0%
- pest or weed control at 250 g/ha [2, 12]: 0%
- pest or weed control at 31 g/ha [2, 14]: 0%
- pest or weed control at 62 g/ha [3, 12]: 0%
- pest or weed control at 125 g/ha [3, 13]: 0%
- pest or weed control at 250 g/ha [3, 12]: 0%
- pest or weed control at 31 g/ha [3, 14]: 0%
- Windgrass plant response rating ([4]; 8 g ai/ha): 30
- Windgrass plant response rating ([4]; 16 g ai/ha): 40
- Plant response rating, Windgrass ([4]; 31 g ai/ha, scale 0 to 100): 60
- Plant response rating, Windgrass [4, 15]: 70
- Canarygrass plant response rating [5]: 90
- Plant response rating, Canarygrass ([5]; 16 g ai/ha, scale 0 to 100): 98
- Plant response rating, Canarygrass ([5]; 31 g ai/ha, scale 0 to 100): 100
- Plant response rating, Canarygrass [5, 15]: 100
- Barley plant response rating [6]: 30
- Plant response rating, Barley ([6]; 16 g ai/ha): 60
- Plant response rating, Barley ([6]; 31 g ai/ha): 95
- Plant response rating, Barley ([6]; 62 g ai/ha): 98
- Chickweed plant response rating [7]: 0
- Plant response rating, Chickweed ([7]; 16 g ai/ha, scale 0 to 100): 0
- Plant response rating, Chickweed ([7]; 31 g ai/ha, scale 0 to 100): 0
- Plant response rating, Chickweed [7, 15]: 0
- pest or weed control at 31 g/ha [8, 16]: 90%
- pest or weed control at 125 g/ha [8, 17]: 100%
- pest or weed control at 31 g/ha [8, 18]: 80%
- pest or weed control at 125 g/ha [8, 19]: 100%
- pest or weed control at 31 g/ha [9, 16]: 60%
- pest or weed control at 125 g/ha [9, 17]: 100%
- pest or weed control at 31 g/ha [9, 18]: 10%
- pest or weed control at 125 g/ha [9, 19]: 100%
- pest or weed control at 31 g/ha [10, 16]: 100%
- pest or weed control at 125 g/ha [10, 17]: 100%
- pest or weed control at 31 g/ha [10, 18]: 0%
- pest or weed control at 125 g/ha [10, 19]: 100%
- Corn plant response rating (crop injury, 0 = no effect, 100 = complete kill) at 31 g/ha (corn (Zea mays); [16]): 60%
- Corn plant response rating (crop injury, 0 = no effect, 100 = complete kill) at 125 g/ha (corn (Zea mays); [17]): 100%
- Corn plant response rating (crop injury, 0 = no effect, 100 = complete kill) at 31 g/ha (corn (Zea mays); [18]): 40%
- Corn plant response rating (crop injury, 0 = no effect, 100 = complete kill) at 125 g/ha (corn (Zea mays); [19]): 60%
- pest or weed control at 31 g/ha [11, 16]: 0%
- pest or weed control at 125 g/ha [11, 17]: 0%
- pest or weed control at 31 g/ha [11, 18]: 0%
- pest or weed control at 125 g/ha [11, 19]: 0%

SMILES: Cc1nn(C)c(=O)c(-n2nc(-c3ccc(C(F)(F)F)cc3)cc2C)c1O [Compound 75, 5-hydroxy-2,6-dimethyl-4-[5-methyl-3-[4-(trifluoromethyl)phenyl]-1H-pyrazol-1-yl]-3(2H)-pyridazinone]
- plant injury at 62 g/ha (rice (Oryza sativa); [12]): 0%
- plant injury at 250 g/ha (rice (Oryza sativa); [12]): 0%
- pest or weed control at 62 g/ha [1, 12]: 0%
- pest or weed control at 250 g/ha [1, 12]: 0%
- pest or weed control at 62 g/ha [2, 12]: 0%
- pest or weed control at 250 g/ha [2, 12]: 0%
- pest or weed control at 62 g/ha [3, 12]: 0%
- pest or weed control at 250 g/ha [3, 12]: 0%
- Windgrass plant response rating ([4]; 8 g ai/ha): 10
- Windgrass plant response rating ([4]; 16 g ai/ha): 50
- Plant response rating, Windgrass ([4]; 31 g ai/ha, scale 0 to 100): 70
- Plant response rating, Windgrass [4, 15]: 90
- Canarygrass plant response rating [5]: 0
- Plant response rating, Canarygrass ([5]; 16 g ai/ha, scale 0 to 100): 0
- Plant response rating, Canarygrass ([5]; 31 g ai/ha, scale 0 to 100): 0
- Plant response rating, Canarygrass [5, 15]: 50
- Barley plant response rating [6]: 0
- Plant response rating, Barley ([6]; 16 g ai/ha): 0
- Plant response rating, Barley ([6]; 31 g ai/ha): 15
- Plant response rating, Barley ([6]; 62 g ai/ha): 60
- Chickweed plant response rating [7]: 0
- Plant response rating, Chickweed ([7]; 16 g ai/ha, scale 0 to 100): 0
- Plant response rating, Chickweed ([7]; 31 g ai/ha, scale 0 to 100): 0
- Plant response rating, Chickweed [7, 15]: 0
- pest or weed control at 31 g/ha [8, 16]: 50%
- pest or weed control at 125 g/ha [8, 17]: 80%
- pest or weed control at 31 g/ha [8, 18]: 20%
- pest or weed control at 125 g/ha [8, 19]: 80%
- pest or weed control at 31 g/ha [9, 16]: 20%
- pest or weed control at 125 g/ha [9, 17]: 80%
- pest or weed control at 31 g/ha [9, 18]: 0%
- pest or weed control at 125 g/ha [9, 19]: 40%
- pest or weed control at 31 g/ha [10, 16]: 10%
- pest or weed control at 125 g/ha [10, 17]: 90%
- pest or weed control at 31 g/ha [10, 18]: 0%
- pest or weed control at 125 g/ha [10, 19]: 80%
- Corn plant response rating (crop injury, 0 = no effect, 100 = complete kill) at 31 g/ha (corn (Zea mays); [16]): 0%
- Corn plant response rating (crop injury, 0 = no effect, 100 = complete kill) at 125 g/ha (corn (Zea mays); [17]): 90%
- Corn plant response rating (crop injury, 0 = no effect, 100 = complete kill) at 31 g/ha (corn (Zea mays); [18]): 0%
- Corn plant response rating (crop injury, 0 = no effect, 100 = complete kill) at 125 g/ha (corn (Zea mays); [19]): 0%
- pest or weed control at 31 g/ha [11, 16]: 0%
- pest or weed control at 125 g/ha [11, 17]: 0%
- pest or weed control at 31 g/ha [11, 18]: 0%
- pest or weed control at 125 g/ha [11, 19]: 0%
